From patent publication US11572350B1, “Benzothia(di)azepine compounds and their use as bile acid modulators” (Albireo AB, priority 2020, dated 2023)

Key:
human IBAT = target: T1, human IBAT (Homo sapiens, UniProt Q12908); experiment: IBAT (h/m) assay: 3H-taurocholic acid uptake in human IBAT-overexpressing cells; assay type: cell-based; details: 0.25 μM 3H-taurocholic acid and 5 μM cold taurocholic acid, 20 minutes, highest test concentration 10 μM, read-out: hIBAT IC50
T1 construct: expressed in transfected cells; kept under Puromycin selection
T1 sequence (Q12908 1-348): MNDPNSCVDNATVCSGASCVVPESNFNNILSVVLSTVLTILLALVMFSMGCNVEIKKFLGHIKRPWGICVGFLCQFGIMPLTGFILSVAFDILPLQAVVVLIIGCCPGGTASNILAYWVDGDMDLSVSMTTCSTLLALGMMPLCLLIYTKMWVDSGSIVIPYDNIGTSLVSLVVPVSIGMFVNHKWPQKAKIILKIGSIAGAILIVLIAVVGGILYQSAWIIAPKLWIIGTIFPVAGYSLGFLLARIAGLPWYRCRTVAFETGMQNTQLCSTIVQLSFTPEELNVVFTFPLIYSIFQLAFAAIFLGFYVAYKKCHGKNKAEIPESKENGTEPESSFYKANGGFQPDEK
Protocol: IBAT (h/m) Assay Protocol
10,000 cells (Human or Mouse IBAT-overexpressing cells) were seeded in 96-wells plate (Corning CLS3809) in 200 μL MEM-alpha medium (Gibco 12571-063) supplemented with 10% FBS (Gibco 10438026) containing Puromycin (Gibco A1113803) (10 μg/mL) and incubated at 37° C. in 5% CO2 for 48 hours. After incubation, media was decanted from the wells and cells were washed two times with 300 μL of basal MEM-alpha medium (FBS-free). After decanting basal MEM-alpha medium each time, plates were tapped against paper towel to ensure maximum removal of residual media. Test inhibitor dilutions (highest test concentration being 10 μM, 3-fold serial dilution, 10 points) prepared in DMSO (Sigma D2650) were added in incubation mix (maintaining 0.2% final DMSO concentration) containing 0.25 μM 3H-taurocholic acid (ARC ART-1368) and 5 μM of cold taurocholic acid (Sigma T4009). 50 μL of incubation mix containing test inhibitors was then added to the wells (in duplicate) and the plates were incubated for 20 minutes in a CO2 incubator at 37° C. After incubation, the reaction was stopped by keeping the plates on ice water mix for 2-3 minutes and then the incubation mix was aspirated completely from the wells. The wells were washed two times with 250 μL of chilled unlabelled 1 mM taurocholic acid dissolved in HEPES (Gibco 15630080)-buffered (10 mM) HBSS (Gibco 14175079) (pH 7.4). The plates were tapped against a paper towel after every wash to ensure maximum removal of blocking buffer.
(§1) 100 μL of MicroScint-20 (PerkinElmer 6013621) was added to the wells and kept overnight at room temperature before reading the plates in TopCount NXT™ Microplate Scintillation and Luminescence Counter from PerkinElmer under 3H Test protocol (set at 120 seconds reading time per well).
(§2) Preparation of Test Compound Dilutions
(§3) All test compounds were provided in powder form at room temperature. 10 mM DMSO stocks of the test compounds were prepared, aliquoted and stored at −20° C. From the 10 mM DMSO stock of the compounds, a 3-fold serial dilution in DMSO was prepared to get a total of 10 dilutions of the test compounds. 0.5 μL of this dilution in DMSO was added to 250 μL of FBS-free basal media containing 3H-taurocholic acid and cold taurocholic acid to prepare the incubation mixture.

human LBAT = target: T2, human LBAT (Homo sapiens, UniProt Q14973); experiment: LBAT (h/m) assay: 3H-taurocholic acid uptake in human LBAT-overexpressing cells; assay type: cell-based; details: 0.3 μM 3H-taurocholic acid and 7.5 μM cold taurocholic acid, 20 minutes, read-out: hLBAT IC50
T2 construct: expressed in transfected cells; kept under Geneticin selection
T2 sequence (Q14973 1-349): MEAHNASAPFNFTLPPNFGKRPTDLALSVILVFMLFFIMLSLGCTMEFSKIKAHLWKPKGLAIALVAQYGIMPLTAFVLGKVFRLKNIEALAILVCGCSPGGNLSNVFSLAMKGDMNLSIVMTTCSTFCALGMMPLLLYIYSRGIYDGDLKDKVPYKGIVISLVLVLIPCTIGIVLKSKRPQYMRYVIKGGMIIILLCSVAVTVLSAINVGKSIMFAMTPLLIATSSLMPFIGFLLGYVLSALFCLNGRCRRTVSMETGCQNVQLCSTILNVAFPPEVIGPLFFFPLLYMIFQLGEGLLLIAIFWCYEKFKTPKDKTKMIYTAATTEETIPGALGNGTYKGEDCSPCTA
Protocol: LBAT (h/m) Assay Protocol
20,000 cells (Human or Mouse LBAT-overexpressing cells) were seeded in 96-wells plate (Corning CLS3809) in 100 μL MEM-alpha medium (Gibco 12571-063) supplemented with 10% FBS (Gibco 10438026) containing Geneticin (Gibco 10131-027) (1 mg/mL) and incubated at 37° C. in 5% CO2 for 24 hours. After incubation, media was decanted from the wells and cells were washed two times with 300 μL of basal MEM-alpha medium (FBS-free). After decanting basal MEM-alpha medium each time, plates were tapped against paper towel to ensure maximum removal of residual media. For human LBAT, incubation mix was prepared by adding test inhibitor dilutions (3-fold serial dilution in DMSO (Sigma D2650), 10 points) in MEM-alpha (without FBS) containing 0.3 μM 3H-taurocholic acid (ARC ART-1368) and 7.5 μM cold taurocholic acid (Sigma T4009) (maintaining 0.2% final DMSO concentration). For mouse LBAT, incubation mix was prepared by adding test inhibitor dilutions (3-fold serial dilution in DMSO, 10 points) in MEM-alpha (without FBS) containing 0.3 μM 3H-taurocholic acid and 25 μM cold taurocholic acid maintaining 0.2% final DMSO concentration). 50 μL of incubation mix containing test inhibitors was then added to the wells (in duplicate) and the plates were incubated for 20 minutes in a CO2 incubator at 37° C. After incubation, the reaction was stopped by keeping the plates on ice water mix for 2-3 minutes and then the incubation mix was aspirated completely from the wells. The wells were washed two times with 250 μL of chilled unlabelled 1 mM taurocholic acid dissolved in HEPES (Gibco 15630080)-buffered (10 mM) HBSS (Gibco 14175079) (pH 7.4). The plates were tapped against a paper towel after every wash to ensure maximum removal of blocking buffer.
as §1, with “well, with normal plate orientation).” for “well).”
as §2, §3

[1] = Bidirectional permeability assay (Caco-2 cells); assay type: in vitro ADME; details: human, FaSSIF donor buffer, 120 minutes at 37° C.; for Papp A→B at 120 min, 10 µM: Caco-2, pH 7.4, absorptive direction (A2B); for Papp B→A at 120 min, 10 µM: Caco-2, pH 7.4, secretory direction (B2A)
Description: Bidirectional Permeability Assay (Caco-2 Cells)
HepaRG-Based Assay Protocol

OATP KO mice = experiment: Effect of LBAT selective compounds on serum bile acid levels in OATP KO mice; assay type: in vivo; details: male OATP KO mice; oral dosing at the indicated doses; FIGS. 1 to 4; n=4
Description: Effect of LBAT Selective Compounds on Serum Bile Acid Levels in OATP KO Mice
Male OATP KO mice (Oatp1a/1b cluster knockout mice, Taconic, USA) aged 8 to 9 weeks were used in the studies. After completion of quarantine and acclimatization period, animals were randomized based on body weight into experimental groups (n=4 mice in each). On the experimental day, a baseline blood sample was collected followed by oral dosing of vehicle (0.5% CMC, 0.1% Tween 80) or compound of Example 3, 6, 13 or 15 at the indicated doses. Blood samples were then collected at various time points after dose (indicated in each graph). Blood was allowed to clot, and serum was collected by centrifugation at 3000 g, 4° C. for 15 minutes and stored at −80° C. for further analysis. The total bile acid concentration in each serum sample was determined by using the CELL BIOLABS Total Bile Acids kit (STA631) according to manufacturer's instructions. Mean±SEM, n=4.

| IC50 (human IBAT) | IC50 (human LBAT) | Papp A→B at 120 min, 10 µM [1] | Papp B→A at 120 min, 10 µM [1] | SMILES | Effect on serum bile acid levels (OATP KO mice) |
| --- | --- | --- | --- | --- | --- |
| 827 nM | 1.6 nM | 2.9 ×10⁻⁶ cm/s | 8.5 ×10⁻⁶ cm/s | CCCCC1CN(c2ccc(F)cc2)c2cc(SC)c(O/C=C(\F)C(=O)O)cc2S(=O)(=O)C1 (racemic) [Example 10, (Z)-3-((3-butyl-5-(4-fluorophenyl)-7-(methylthio)-1,1-dioxido-2,3,4,5-tetrahydro-1,5-benzothiazepin-8-yl)oxy)-2-fluoroacrylic acid] |  |
| 1380 nM | 2.5 nM | 1 ×10⁻⁶ cm/s | 3.6 ×10⁻⁶ cm/s | CCCCC1CN(c2ccc(F)cc2)c2cc(SCC)c(O/C=C(\F)C(=O)O)cc2S(=O)(=O)C1 (racemic) [Example 16, (Z)-3-((3-butyl-7-(ethylthio)-5-(4-fluorophenyl)-1,1-dioxido-2,3,4,5-tetrahydro-1,5-benzothiazepin-8-yl)oxy)-2-fluoroacrylic acid] |  |
| 647 nM | 2.6 nM | 1.1 ×10⁻⁶ cm/s | 3.1 ×10⁻⁶ cm/s | CCCCC1CN(c2ccc(F)cc2)c2cc(SCC)c(O/C=C(\F)C(=O)O)cc2S(=O)(=O)C1 (single isomer, unassigned) [Example 18, (Z)-3-((3-butyl-7-(ethylthio)-5-(4-fluorophenyl)-1,1-dioxido-2,3,4,5-tetrahydro-1,5-benzothiazepin-8-yl)oxy)-2-fluoroacrylic acid] |  |

The next lines start with the compound.

| SMILES | IC50 (human IBAT) | IC50 (human LBAT) | Papp A→B at 120 min, 10 µM [1] | Papp B→A at 120 min, 10 µM [1] | Effect on serum bile acid levels (OATP KO mice) |
| --- | --- | --- | --- | --- | --- |
| CCCCC1CN(c2ccc(F)cc2)c2cc(SC)c(O/C=C(\F)C(=O)O)cc2S(=O)(=O)N1C (single isomer, unassigned) [Example 20, (Z)-3-((3-butyl-5-(4-fluorophenyl)-2-methyl-7-(methylthio)-1,1-dioxido-2,3,4,5-tetrahydro-1,2,5-benzothiadiazepin-8-yl)oxy)-2-fluoroacrylic acid] | 135 nM | 0.8 nM | 2.7 ×10⁻⁶ cm/s | 10.5 ×10⁻⁶ cm/s |  |
| CCCCC1CN(c2ccc(F)cc2)c2cc(SCC)c(O/C=C/C(=O)O)cc2S(=O)(=O)C1 (racemic) [Example 7, (E)-3-((3-Butyl-7-(ethylthio)-5-(4-fluorophenyl)-1,1-dioxido-2,3,4,5-tetrahydro-1,5-benzothiazepin-8-yl)oxy)acrylic acid] | > 10000 nM | 2.6 nM | 11.3 ×10⁻⁶ cm/s | 8.9 ×10⁻⁶ cm/s |  |
| CCCCC1CN(c2ccc(F)cc2)c2cc(SC)c(O/C=C/C(=O)O)cc2S(=O)(=O)N1 (racemic) [Example 1, (E)-3-((3-Butyl-5-(4-fluorophenyl)-7-(methylthio)-1,1-dioxido-2,3,4,5-tetrahydro-1,2,5-benzothiadiazepin-8-yl)oxy)acrylic acid] | 1670 nM | 1 nM | 7.3 ×10⁻⁶ cm/s | 17.2 ×10⁻⁶ cm/s |  |
| CCCCC1CN(c2ccccc2)c2cc(SCC)c(O/C=C(\F)C(=O)O)cc2S(=O)(=O)N1C (single isomer, unassigned) [Example 25, (Z)-3-((3-butyl-7-(ethylthio)-2-methyl-1,1-dioxido-5-phenyl-2,3,4,5-tetrahydro-1,2,5-benzothiadiazepin-8-yl)oxy)-2-fluoroacrylic acid] | 431 nM | 0.9 nM | 1.9 ×10⁻⁶ cm/s | 3.9 ×10⁻⁶ cm/s |  |
| CCCCC1CN(c2ccc(F)cc2)c2cc(SCC)c(O/C=C/C(=O)O)cc2S(=O)(=O)N1 (racemic) [Example 30, (E)-3-((3-butyl-7-(ethylthio)-5-(4-fluorophenyl)-1,1-dioxido-2,3,4,5-tetrahydro-1,2,5-benzothiadiazepin-8-yl)oxy)acrylic acid] | 4100 nM | 2.6 nM | 6.5 ×10⁻⁶ cm/s | 8.7 ×10⁻⁶ cm/s |  |
| CCCCC1CN(c2ccc(F)cc2)c2cc(SC)c(O/C=C(\F)C(=O)O)cc2S(=O)(=O)N1C (racemic) [Example 19, (Z)-3-((3-butyl-5-(4-fluorophenyl)-2-methyl-7-(methylthio)-1,1-dioxido-2,3,4,5-tetrahydro-1,2,5-benzothiadiazepin-8-yl)oxy)-2-fluoroacrylic acid] | 248 nM | 1.9 nM | 4.3 ×10⁻⁶ cm/s | 6.1 ×10⁻⁶ cm/s |  |
| CCCCC1CN(c2ccccc2)c2cc(SCC)c(O/C=C/C(=O)O)cc2S(=O)(=O)N1 (single isomer, unassigned) [Example 6, (E)-3-((3-butyl-7-(ethylthio)-1,1-dioxido-5-phenyl-2,3,4,5-tetrahydro-1,2,5-benzothiadiazepin-8-yl)oxy)acrylic acid] | > 10000 nM | 129 nM |  |  | increased serum bile acid levels |
